Test results published in patent publication US20070202054A1, “Inhalant Formulation Containing Sulfoalkyl Ether Cyclodextrin and Corticosteroid” (priority 2003, published 2007).

Legend:
[1] = type: physicochemical
Description: The phase solubility binding curve for Salmeterol xinafoate and budesonide was determined as described herein, and the approximate equilibrium binding constant (Ki) of each with CAPTISOL was determined. […] The molar ratio of CAPTISOL to Salmeterol xinafoate at saturated solubility was about 3.2 under the test conditions used. Their may be a reduction in the amount of budesonide solubilized by CAPTISOL in the presence of Salmeterol xinafoate; however, clear aqueous liquid solution formulations comprising therapeutically effective amounts of budesonide and Salmeterol xinafoate were prepared.

[2] = human, in vivo; cited from earlier work
red blood cells = settings: concentrations typically used to solubilize pharmaceutical formulations; cited from earlier work
[3] = Viscosity of SAE-CD solutions (cone and plate viscometer); type: physicochemical; settings: 25 C.
Description: The performance of an inhalable solution of the invention in a nebulizer may depend upon the viscosity of the solution in its reservoir, the nebulization solution. Viscosity of the inhalable composition can have an impact on percentage of nebulization composition emitted from a nebulizer, output rate of nebulized corticosteroid and droplet size distribution.
The viscosity of aqueous solutions containing SAE-CD were measured using a cone and plate viscometer.
A Brookfield Programmable DV-III+ Rheometer, CPE-40 cone and CPE 40Y plate (Brookfield Engineering Laboratories, Middleboro, Mass.) was used to make measurements on 0.5 ml samples at 1, 2, 3, 5 and 10 rpm. Samples were sheered for approximately 5 revolutions prior to each measurement. This allowed accurate rheological characterization of the samples. The temperature of all samples was equilibrated to 25±1 degree centigrade using a double wall viscometer cone supplied with water from an electronically controlled thermostatic circulating water bath (Model, 8001, Fisher Scientific, Pittsburgh, Pa.). The viscometer was calibrated using 5 and 50 centipoise using silicon oil calibration standards. Viscosity measurements were made at 5 or more rotation speeds to look for sheer thinning behavior (viscosities that decrease as the rate of sheer increases). Higher rotation speeds result in increased rates of sheer.

[4] = Density of CAPTISOL solutions (pycnometer); type: physicochemical; settings: 25° C.
Description: The concentration of SAE-CD in solution can be expressed on a weight to weight or weight to volume basis; however, these two units are interconvertible. When a known weight of cyclodextrin is dissolved in a known weight of water, the % w/w cyclodextrin concentration is determined by dividing the cyclodextrin weight in grams by the total weight (cyclodextrin+water weight) in like units and multiplying by 100. When a known weight of cyclodextrin is dissolved to a known total volume, the % w/v cyclodextrin concentration is determined by dividing the cyclodextrin weight in grams by the total volume in milliliters and multiplying by 100. The correlation between the two cyclodextrin concentration percentages was experimentally determined by preparing various % w/w cyclodextrin solutions and measuring the density of each with a pycnometer at 25° C.

## CCCC1O[C@@H]2C[C@H]3[C@@H]4CCC5=CC(=O)C=C[C@]5(C)[C@H]4[C@@H](O)C[C@]3(C)[C@]2(C(=O)CO)O1 (stereo partly drawn) [Budesonide, (R,S)-11β,16α,17,21-tetrahydroxypregna-1,4-diene-3,20-dione cyclic 16,17-acetal with butyraldehyde]
[1]
  approximate equilibrium binding constant (Ki) with CAPTISOL: ~600

## OCc1cc(C(O)CNCCCCCCOCCCCc2ccccc2)ccc1O (centres unmarked) [Salmeterol xinafoate]
[1]
  approximate equilibrium binding constant (Ki) with CAPTISOL: approximately 3,500
  molar ratio of CAPTISOL to drug at saturated solubility: about 3.2

## CCNC(=O)[C@@H]1CCCN1C(=O)[C@H](CCCNC(=N)N)NC(=O)[C@H](CC(C)C)NC(=O)[C@@H](CC(C)C)NC(=O)[C@H](Cc1ccc(O)cc1)NC(=O)[C@H](CO)NC(=O)[C@H](Cc1c[nH]c2ccccc12)NC(=O)[C@H](Cc1c[nH]cn1)NC(=O)[C@@H]1CCC(=O)N1 [leuprolide acetate]
[2]
  mean bioavailability: 6.6%

## Sulfobutyl Ether-β-Cyclodextrin [Captisol]
Red blood cells
  hemolytic behavior: essentially no hemolytic behavior
[3]; Captisol 8.5 % w/w
  Viscosity: 1.75 Cp
[3]; Captisol 29.8 % w/w
  Viscosity: 5.91 Cp
[3]; Captisol 39.7 % w/w
  Viscosity: 17.0 Cp
[3]; Captisol 49.4 % w/w
  Viscosity: 51.9 Cp
[3]; Captisol 59.4 % w/w
  Viscosity: 527.0 Cp
[3]; Captisol […] w/w
  Viscosity: 2.78 Cp
[4]; Captisol 8.5 % w/w
  Density: 1.041 g/mL
[4]; Captisol 29.8 % w/w
  Density: 1.149 g/mL
[4]; Captisol 39.7 % w/w
  Density: 1.202 g/mL
[4]; Captisol 49.4 % w/w
  Density: 1.259 g/mL
[4]; Captisol 59.4 % w/w
  Density: 1.320 g/mL
[4]; Captisol […] w/w
  Density: 1.095 g/mL
